Where a SMILES comes first, the peptide text is derived from it. Bridges are numbered along the chain shown (N, C = ends).
Assays:
Type in all cases: cell-based
786-0 = assay: Cell death of cancerous cell line
[1] = target: T1, CK2α/CK2β interaction in MCF-10A cells (Homo sapiens, UniProt P68400); assay: CK2β immunoprecipitation from treated cells, Western blot of CK2α; settings: WT MCF-10A cells, 50 µM for 2 h, compared with TAT
T1 construct: endogenous in cells; host or cells: MCF-10A (WT)
Procedure: To assess the cell-penetrating properties of TAT-Pc 13, we used a tetramethylrhodamine-conjugated TAT-Pc 13 analogue (TAMRA-TAT-Pc 13). The cellular uptake of this fluorescently labeled peptide was very rapid: only 2 min after incubation, the peptide was detectable in MCF-10A cells and plateauing after 5 min (Figure 7A). The impact of TAT-Pc 13 cell uptake on the expression of the CK2 subunits in WT and CK2β-depleted MCF-10A cells was evaluated by Western blot. […] We next evaluated the effect of TAT-Pc 13 on the CK2 subunit association using two independent strategies. First, CK2β was immunoprecipitated in extracts of MCF-10A cells treated with TAT or TAT-Pc 13 and the amount of CK2α recovered in the immunoprecipitates was analyzed by Western blot.
Figure 7 Uptake and cellular effects of TAT-Pc 13. (A) kinetic of TAMRA-TAT-Pc 13 uptake in MCF-10A cells; (B) WT or CK2β-depleted MCF-10A cells were incubated with 50 µM TAT or TAT-Pc 13 for 8 h and the expression of CK2 subunits was evaluated by Western blot; (C) anti-CK2β immunoprecipitates were prepared from WT MCF-10A cells incubated with 50 µM TAT or TAT-Pc 13 for 2 h. Presence of CK2 subunits in the corresponding immunoprecipitates was determined by Western blot; (D) in situ proximity ligation images of MCF-10A cells incubated with 50 µM TAT (a,b,d) or TAT-Pc 13 (c) for 6 h. […]

HeLa = assay: Cell death of cancerous cell line, PrestoBlue assay; settings: 6 h, increasing concentrations (Figure S1)
Procedure: (§1) Alternatively, cell viability was measured using the PrestoBlue® assay (Invitrogen, Carlsbad, CA, USA). The microtiter plates containing the treated cells were incubated for 1 h with 10 µL PrestoBlue. The fluorescence was recorded at 580 nm using a FluoStar Optima plate reader (BMG LabTech, Ortenberg, Germany).
(§2) Supplementary Materials: In Search of Small
(§3) Molecule Inhibitors Targeting the Flexible CK2
(§4) Benoit Bestgen, Zakia Belaid-Choucair, Thierry Lomberget, Marc Le Borgne, Odile Filhol […]
(§5) Figure S1. Cellular effects of TAT-Pc 13. (A) MDA MB-231 cells (⦁-⦁) or HeLa cells (○-○) were incubated for 6 h with increasing concentrations of TAT-Pc 13 and cell death was measured using the PrestoBlue assay as described in Material and Methods; (B) 786-O cells were treated for 12 h with increasing concentrations of CX-4945, lysed and analyzed by Western blot; (C) 786-O cells were treated with 20 µM TAT-Pc 13 or 5 µM CX-4945 and immunostained for p21 expression.
(§6) Figure 2. Inhibition of TAT-Pc-induced cell death. MCF-10A cells were pre-treated in the absence (CTRL) or presence of 20 µM z-VAD or 30 µM Necrostatin-1 or 20 µM z-VAD + 30 µM Necrostatin-1 for 5 h and then incubated for 4 h with 25 µM random TAT-Pc 13 or TAT-Pc 13 and cell viability was evaluated as in Figure 8A. […]

MDA MB-231 = assay: as above; settings: 6 h, increasing concentrations (Figure S1)
Procedure: as §1, §2, §3, §4, §5, §6

WT MCF-10A cells = assay: Cell death / viability, LIVE&DEAD assay, WT cells
Procedure: Figure 8 Cellular effects of TAT-Pc 13. (A) MCF-10A cells were incubated with 25 µM of TAT-Pc 13 for 3 h and imaged with phase microscopy (upper panel) or with increasing concentrations of TAT-Pc 13 for 2 h and cell viability was evaluated using the LIVE&DEAD™ assay. Live cells fluoresce bright green (530 nm), whereas dead cells fluoresce red-orange (645 nm) (lower panel, scale bare: 100 µm); (B) WT (○-○) or CK2β-depleted (●-●) MCF-10A cells were incubated for 4 h with increasing concentrations of TAT-Pc 13 and cell death was evaluated using the LIVE&DEAD™ assay recording fluorescence at 645 nm. Representative data shown from two independent experiments in duplicate; (C) MCF-10A cells were pre-treated in the absence or presence of 20 µM z-VAD for 5 h and then incubated for 4 h with 25 µM random TAT-Pc 13 or TAT-Pc 13 and cell viability was evaluated as in (A) (scale bare: 100 µm); and (D) intracellular events induced by increasing concentrations of TAT-Pc 13. After 12 h of treatment, 786-O cells were lysed and analyzed by Western blot. TEXT PRINTED IN THE PICTURE: (B) TAT-Pc 13: TAT-Pc 13 (μM): 48; TAT-Pc 13 (μM): 60 DOUBTS OF THE COPYIST ABOUT THIS PICTURE: Panel B: 48 and 60 are printed in red at the x axis, where dashed lines drop from the two curves at about 50 on the Cell death (%) axis. No measure name (e.g. IC50) is printed with them.
Cells were seeded in 96-well microtiter plates at a concentration of 1 × 10^5 cells/mL and were allowed to attach for 24 h at 37 °C in 5% CO2. Cells were then exposed to different concentrations of TAT-Pc 13 for the indicated time. Cell viability was evaluated using the fluorescence-based LIVE&DEAD™ assay (Molecular Probes, Thermo Fisher Scientific, Courtaboeuf, France) according to the manufacturer. Images were taken with an Apotome-equipped Zeiss Axioimager microscope (Zeiss, Oberkochen, German) recording the fluorescence at 530 nm (Live cells) and 645 nm (dead cells) respectively using a FluoStar Optima plate reader (BMG LabTech, Ortenberg, Germany).

[2] = both WT and CK2β-depleted MCF-10A cells, 4 h

T1 sequence (P68400 whole entry): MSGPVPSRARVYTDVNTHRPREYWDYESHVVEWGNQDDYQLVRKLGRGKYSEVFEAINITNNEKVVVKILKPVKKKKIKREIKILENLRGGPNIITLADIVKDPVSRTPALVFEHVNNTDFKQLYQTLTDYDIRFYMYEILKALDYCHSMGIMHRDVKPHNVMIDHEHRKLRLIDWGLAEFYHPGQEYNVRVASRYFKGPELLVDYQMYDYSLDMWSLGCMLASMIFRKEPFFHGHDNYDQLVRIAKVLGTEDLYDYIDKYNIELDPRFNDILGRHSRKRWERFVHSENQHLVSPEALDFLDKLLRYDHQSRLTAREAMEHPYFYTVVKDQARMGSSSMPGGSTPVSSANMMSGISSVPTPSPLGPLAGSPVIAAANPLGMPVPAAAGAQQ

For `CC[C@H](C)[C@@H]1NC(=O)[C@H](CCCCN)NC(=O)[C@H](Cc2ccccc2)NC(=O)CNC(=O)[C@H](Cc2ccc(O)cc2)NC(=O)[C@H](CC(C)C)NC(=O)[C@H](CCCNC(=N)N)NC(=O)CNC(=O)CNC(=O)[C@@H](NC(=O)[C@H](CCC(N)=O)NC(=O)[C@@H]2CCCN2C(=O)[C@@H]2CCCN2C(=O)[C@H](CCCNC(=N)N)NC(=O)[C@H](CCCNC(=N)N)NC(=O)[C@H](CCCNC(=N)N)NC(=O)[C@H](CCC(N)=O)NC(=O)[C@H](CCCNC(=N)N)NC(=O)[C@H](CCCNC(=N)N)NC(=O)[C@H](CCCCN)NC(=O)[C@H](CCCCN)NC(=O)[C@H](CCCNC(=N)N)NC(=O)CN)CCCCNC(=O)CNC(=O)CNC(=O)[C@H](Cc2c[nH]cn2)NC1=O` [TAT-Pc 13] (H-GRKKRRQRRRPPQKGGRLYGFKIHGG; lactam 14-C; N-terminus assumed), the “induction of cell death” value (786-0) was “induce cell death”, the “CK2α recovered in CK2β immunoprecipitates” value [1] was “significantly less CK2α” and the “induction of cell death” value (HeLa) was “induce cell death”. The “induction of cell death” value (MDA MB-231) was “induce cell death”, the “concentration at which cell death became massive” value (WT MCF-10A cells; [2]) was 50 to 60 µM and the “concentration at which cell death was already detectable” value (WT MCF-10A cells; [2]) was 25 µM. For the same compound, the “cells rounded up and shrank” value (WT MCF-10A cells; three hours after addition, 25 µM (Figure 8A), phase microscopy) was “more than 50%”.

From paper PMC5374420, “In Search of Small Molecule Inhibitors Targeting the Flexible CK2 Subunit Interface” (Pharmaceuticals, 2017)
